In patent US20250154288A1, “CYTOTOXICITY TARGETING CHIMERAS FOR C-C CHEMOKINE RECEPTOR 2-EXPRESSING CELLS” (GLAXOSMITHKLINE INTELLECTUAL PROPERTY DEVELOPMENT LIMITED, priority 2022, published 2025):
Where a name gives a salt, the structure may show the parent alone.

Key:
[1] = molecular target: T1, CHOK1 cells engineered to overexpress human CCR2 (Homo sapiens, UniProt P41597); test: Antibody Dependent Cellular Cytotoxicity (ADCC) Reporter Assay; format: cell-based; settings: with anti-cotinine antibody (human IgG1 Fc, S239D/I332E); Jurkat FcγRIIIa NFAT-luciferase reporter cells; average if several runs; read-out: ADCC Reporter Assay pEC50 (converted)
T1 construct: expressed in transfected cells; host or cells: CHOK1
Description: An antibody dependent cellular cytoxocity reporter assay was conducted using the following four assay components: (i) ARM compound of Formula (I) targeting CCR2 (concentrations ranging from 1 pM to 10 μM) (ii) anti-cotinine antibody having a heavy chain sequence of SEQ ID NO: 11 and a light chain sequence of SEQ ID NO: 12 (rabbit variable region with human IgG1 Fc domain containing a DE mutation (S239D/I332E)) (concentrations ranging from 0.01 μg/mL to 200 μg/mL); (iii) target cells: CHOK1 cells engineered to overexpress either human CCR2 (typically 1000-20,000 cells per well) and (iv) reporter cells: Jurkat cells engineered to express FcγRIIIa with the reporter gene luciferase under the control of the NFAT promoter (typically 3000-75,000 cells per well). Reagents were combined in a final volume of 20 μL in a 384-well tissue culture treated plate. All four assay components were incubated together for about 12-18 hours. Thereafter, BioGlo Detection reagent (Promega) was added to the wells to lyse the cells and provide a substrate for the luciferase reporter protein. Luminescence signal was measured on a microplate reader and signal:background was calculated by dividing the signal of a test well by the signal obtained when no heterobivalent compound of Formula (I) was added. EC50 calculations were done using Graphpad Prism Software, specifically a nonlinear regression curve fit (Y=Bottom+(Top−Bottom)/(1+10 ^((Log EC50−X)*HillSlope))).
ARMs compounds of Formula (I) of the invention were tested for ADCC activity in the above assay in or more experimental runs and the results are shown in Table 3 below. Potency of the compounds of Formula (I) of the invention is reported as a pEC50 value. The pEC50 value is the negative log of the EC50 value, wherein the EC50 value is the half maximal effective concentration measured in molar (M). For compounds tested in more than one experimental run, the pEC50 value is reported as an average.

[2] = molecular target: human alpha1 nicotinic acetylcholine (nACh) receptor (Homo sapiens, UniProt P02708+Q07001); test: Nicotinic Acetylcholine Receptor Antagonism Assay (IONFlux automated patch clamp); format: cell-based; settings: for IC50: antagonism of nAChR stimulated with acetylcholine, average if several runs; for Emax at 100 µM: maximum percentage antagonism at Maximum Concentration of Compound Tested 100 μM
Sequence of human alpha1 nicotinic acetylcholine (nACh) receptor (P02708 21-457): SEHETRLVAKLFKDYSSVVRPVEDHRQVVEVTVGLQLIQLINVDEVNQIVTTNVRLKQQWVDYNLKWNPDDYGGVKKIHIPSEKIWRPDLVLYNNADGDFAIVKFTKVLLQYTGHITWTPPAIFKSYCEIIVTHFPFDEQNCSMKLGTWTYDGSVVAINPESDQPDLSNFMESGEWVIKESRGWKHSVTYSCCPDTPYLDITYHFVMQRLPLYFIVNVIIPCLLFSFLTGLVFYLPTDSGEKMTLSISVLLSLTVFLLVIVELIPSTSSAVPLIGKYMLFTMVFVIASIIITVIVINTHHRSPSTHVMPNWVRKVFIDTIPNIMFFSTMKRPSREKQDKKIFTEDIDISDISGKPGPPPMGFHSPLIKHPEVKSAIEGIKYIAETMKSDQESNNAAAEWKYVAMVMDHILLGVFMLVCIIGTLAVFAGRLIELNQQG
Sequence of human alpha1 nicotinic acetylcholine (nACh) receptor (P11230 24-501 partner): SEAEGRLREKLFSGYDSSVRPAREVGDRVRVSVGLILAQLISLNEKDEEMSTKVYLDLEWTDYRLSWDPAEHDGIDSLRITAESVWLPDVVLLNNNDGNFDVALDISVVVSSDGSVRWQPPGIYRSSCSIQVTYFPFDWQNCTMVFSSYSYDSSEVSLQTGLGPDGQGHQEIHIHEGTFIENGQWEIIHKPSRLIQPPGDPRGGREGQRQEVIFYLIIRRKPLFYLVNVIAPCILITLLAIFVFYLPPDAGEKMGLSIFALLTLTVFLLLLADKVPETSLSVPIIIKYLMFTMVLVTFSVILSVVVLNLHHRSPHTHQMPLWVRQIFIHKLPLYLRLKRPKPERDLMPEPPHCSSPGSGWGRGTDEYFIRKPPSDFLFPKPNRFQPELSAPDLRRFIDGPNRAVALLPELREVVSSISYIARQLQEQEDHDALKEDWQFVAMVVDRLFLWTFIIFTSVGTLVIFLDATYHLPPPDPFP
Sequence of human alpha1 nicotinic acetylcholine (nACh) receptor (Q07001 22-517): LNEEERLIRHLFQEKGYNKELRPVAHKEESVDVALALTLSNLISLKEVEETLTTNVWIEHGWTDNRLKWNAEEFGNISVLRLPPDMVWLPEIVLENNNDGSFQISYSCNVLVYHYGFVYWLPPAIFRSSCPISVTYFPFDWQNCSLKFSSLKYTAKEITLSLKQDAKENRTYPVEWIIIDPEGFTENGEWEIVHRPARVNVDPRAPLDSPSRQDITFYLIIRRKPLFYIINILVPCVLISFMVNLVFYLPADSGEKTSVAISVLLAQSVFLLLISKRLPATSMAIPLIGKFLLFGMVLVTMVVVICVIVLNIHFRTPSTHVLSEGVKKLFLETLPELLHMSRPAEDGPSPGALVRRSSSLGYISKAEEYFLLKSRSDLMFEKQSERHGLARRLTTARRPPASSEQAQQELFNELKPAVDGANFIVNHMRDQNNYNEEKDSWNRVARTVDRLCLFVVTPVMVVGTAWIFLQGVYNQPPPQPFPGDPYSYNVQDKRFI
Description: Cells expressing human alpha1 nicotinic acetylcholine (nACh) receptor (nAChR) were washed and dissociated using Trypsin containing buffer. Cells were then washed and seeded at a density of 3-5 million cells/mL and allowed to grow for 3 days. Then, 60-80 μL of cells were added to plates and incubated with dose response of an ARM compound of Formula (I) with a top concentration of either 10 μM or 100 μM. The receptor was then stimulated via addition of acetylcholine (ACh) and activation of the receptor was monitored via the IONFlux automated patch clamp system. IonFlux Data Analyzer software was utilized to perform leak subtraction and measure (min) peak current amplitude.
Data processing: (1) Current values recorded for vehicle only applications in individual traps/patterns were subtracted from corresponding current amplitude values for control, test article and control+test article. (2) Control response was calculated as % of the average response of the 3rd out of total 3 ACh (10 mM) applications alone. In rare situations, if the 3rd ACh response was obscured due to technical artifacts, the 2nd and/or 1st ACh (10 mM) application was considered as control. The peak current amplitude generated in the presence of each test article concentration was then used to calculate the % inhibition as compared to control response (10 mM ACh alone). These estimates were further corrected for vehicle response and run down corrected by normalizing with time matched control responses (10 mM ACh alone). The corrected percentages were then fit with a non-linear function in GraphPad Prism 6 (or later versions) to determine the IC50.
Exclusion criteria: (i) any n's with poor recording quality, (ii) control current amplitude <500 pA or (iii) significant outliers, as determined by the Grubbs' test.
ARMs compounds of Formula (I) of the invention were tested for antagonism of the nAChR in the above assay in […] experimental runs and the results are shown in Table 6 below. Antagonistic activity of the compounds of Formula (I) of the invention is reported as an IC50 value (half maximal inhibitory concentration) and the maximum percentage antagonism observed at the highest concentration of compound of Formula (I) tested, as indicated in Table 6. For compounds tested in more than one experimental run, the IC50 value is reported as an average.

SMILES | EC50 [1] [nM] | IC50 [2] [nM] | Emax at 100 µM ([2]; read-out: Maximum Response (%)) [%] | Emax at 10 µM ([2]; maximum percentage antagonism at Maximum Concentration of Compound Tested 10 μM, read-out: Maximum Response (%)) [%]
CO[C@@H]1COCC[C@@H]1N[C@@H]1CC[C@](CCCNC(=O)[C@H]2CC[C@@H](NC(=O)CCCO[C@H]3CC[C@H](OCCNC(=O)[C@H]4CC(=O)N(C)[C@@H]4c4cccnc4)CC3)CC2)(C(=O)N2CCc3ncc(C(F)(F)F)cc3C2)C1 [Example 6, (2S,3S)-N-(2-(((1R,4S)-4-(4-(((1R,4S)-4-((3-((1S,3R)-3-(((3S,4S)-3-Methoxytetrahydro-2H-pyran-4-yl)amino)-1-(3-(trifluoromethyl)-5,6,7,8-tetrahydro-1,6-naphthyridine-6-carbonyl)cyclopentyl)propyl)carbamoyl)cyclohexyl)amino)-4-oxobutoxy)cyclohexyl)oxy)ethyl)-1-methyl-5-oxo-2-(pyridin-3-yl)pyrrolidine-3-carboxamide, Formic acid salt] | 0.794 | > 100000 | 31 | 
CO[C@@H]1COCC[C@@H]1N[C@@H]1CC[C@](CCCCNC(=O)[C@H]2CC[C@H](NC(=O)CCCO[C@H]3CC[C@@H](OCCNC(=O)[C@H]4CC(=O)N(C)[C@@H]4c4cccnc4)CC3)CC2)(C(=O)N2CCc3ncc(C(F)(F)F)cc3C2)C1 [Example 10, (2S,3S)-N-(2-(((1S,4R)-4-(4-(((1S,4R)-4-((4-((1S,3R)-3-(((3S,4S)-3-Methoxytetrahydro-2H-pyran-4-yl)amino)-1-(3-(trifluoromethyl)-5,6,7,8-tetrahydro-1,6-naphthyridine-6-carbonyl)cyclopentyl)butyl)carbamoyl)cyclohexyl)amino)-4-oxobutoxy)cyclohexyl)oxy)ethyl)-1-methyl-5-oxo-2-(pyridin-3-yl)pyrrolidine-3-carboxamide] | 1.26 | > 100000 | 26 | 
CO[C@@H]1COCC[C@@H]1N(CCCNC(=O)[C@H]1CC[C@H](NC(=O)CCCO[C@H]2CC[C@H](OCCNC(=O)[C@H]3CC(=O)N(C)[C@@H]3c3cccnc3)CC2)CC1)[C@@H]1CC[C@@](C(=O)N2CCc3ncc(C(F)(F)F)cc3C2)(C(C)C)C1 [Example 13, (2S,3S)-N-(2-(((1R,4S)-4-(4-(((1S,4R)-4-((3-(((1R,3S)-3-isopropyl-3-(3-(trifluoromethyl)-5,6,7,8-tetrahydro-1,6-naphthyridine-6-carbonyl)cyclopentyl)((3S,4S)-3-methoxytetrahydro-2H-pyran-4-yl)amino)propyl)carbamoyl)cyclohexyl)amino)-4-oxobutoxy)cyclohexyl)oxy)ethyl)-1-methyl-5-oxo-2-(pyridin-3-yl)pyrrolidine-3-carboxamide] | 0.794 | > 100000 | 37 | 
CO[C@@H]1COCC[C@@H]1N[C@@H]1CC[C@](CCCNC(=O)[C@H]2CC[C@@H](NC(=O)CCCC(=O)NCCCC(=O)NCCCNC(=O)[C@H]3CC(=O)N(C)[C@@H]3c3cccnc3)CC2)(C(=O)N2CCc3ncc(C(F)(F)F)cc3C2)C1 [Example 16, N-((1R,4s)-4-((3-((1S,3R)-3-(((3S,4S)-3-Methoxytetrahydro-2H-pyran-4-yl)amino)-1-(3-(trifluoromethyl)-5,6,7,8-tetrahydro-1,6-naphthyridine-6-carbonyl)cyclopentyl)propyl)carbamoyl)cyclohexyl)-N-(4-((3-((2S,3S)-1-methyl-5-oxo-2-(pyridin-3-yl)pyrolidine-3-carboxamido)propyl)amino)-4-oxobutyl)glutaramide] | 0.631 | 71100 | 64 | 
CO[C@@H]1COCC[C@@H]1N[C@@H]1CC[C@](CCCCNC(=O)CCOCCOCCO[C@H]2CC[C@H](OCCNC(=O)[C@H]3CC(=O)N(C)[C@@H]3c3cccnc3)CC2)(C(=O)N2CCc3ncc(C(F)(F)F)cc3C2)C1 [Example 21, (2S,3S)-N-(2-(((1r,4S)-4-(2-(2-(3-((4-((1S,3R)-3-(((3S,4S)-3-Methoxytetrahydro-2H-pyran-4-yl)amino)-1-(3-(trifluoromethyl)-5,6,7,8-tetrahydro-1,6-naphthyridine-6-carbonyl)cyclopentyl)butyl)amino)-3-oxopropoxy)ethoxy)ethoxy)cyclohexyl)oxy)ethyl)-1-methyl-5-oxo-2-(pyridin-3-yl)pyrrolidine-3-carboxamide, Formic acid salt] | 6.31 | > 10000 |  | 22
